Results taken from US8541670B2, “Compositions and methods for inhibiting tumor cell growth” (priority 2007, dated 2013).
Where no end group is shown, it is not given here.

Legend:
[1] = target: T1, AKT-PKAc complex (Mus musculus, UniProt P31750); assay: Co-immunoprecipitation of AKT-PKAc complex in N2a cells; assay type: cell-based; design: Neuroblastoma 2a (N2a) neurons expressing an endogenous level of AKT and PKAc; endogenous in cells; host or cells: N2a neuroblastoma cells; settings: 24-hour treatment
Description: Accordingly, the stability and phenotypic consequences of the AKT-PKAc complex was also analyzed in cultured neurons. N2a cells were treated with vehicle, ZaTa or control peptide for 24 hours. Media was removed after the 24-hour treatment and an equal number of cells from each treatment group was either cultured for another 24 hours without treatment, or lysed and subjected to immunoprecipitation with an antibody against AKT. Those cells cultured for another 24 hours were also harvested and subjected to immunoprecipitation. In parallel, the number of individual neurons with neurites was counted. […] Live images of N2a neurons were captured following treatment with vehicle or ZaTa (2 or 5 μM). […] ZaTa-mediated changes included a progressive loss of neurites, inhibition of new neurite formation, loss of cell motility, as well as formation of large cell colonies.

[2] = target: T2, AKT1 (Homo sapiens, UniProt P31749); assay: AKT kinase assay with Ser-9 GSK-3 GST fusion protein substrate (western blot, phospho-specific antibody); assay type: biochemical; settings: wild-type active AKT
T2 construct: purchased Upstate Biotechnology
Description: Since the observed effect of H-89 and forskolin on AKT activity in cultured cells could be interpreted as the result of the regulatory interference of other signaling pathways, in vitro analysis was carried using purified, active forms of AKT and PKAc to examine the direct result of this interaction on the kinase catalytic activity. […] This decrease in the catalytic activity of AKT by PKAc was inhibited when the PKA inhibitor was added to the reaction mixture. […] The decrease in the catalytic activity of AKT by PKAc was also observed with two mutants and active forms of AKT1, one with a deletion in the PH domain and the other one with a Ser473Asp mutation. As with wild-type AKT, the inhibitory effect of PKAc on the mutants was reversed in the presence of the PKA inhibitor peptide. […]
For non-radioactive kinase assays, typically 25 ng of active AKT1 or PKAc (Upstate Biotechnology) was used in a kinase assay reaction buffer (20 mM MOPS, pH 7.2, 25 mM […]-glycerophosphate, 5 mM EGTA, 1 mM Na3VO4, 1 mM dithiothreitol, 75 mM MgCl2, and 0.5 mM ATP) in the presence of either 1 μL of Ser-9 GSK-3 GST fusion protein (Cell Signaling), or recombinant DARPP-32 (10 μg). […] A 5 μL aliquot of the reaction was transferred to phosphocellulose paper, washed for 30 minutes with dH2O, and CPM of samples read in scintillation counter.

[3] = target: T1, AKT-PKAc complex; assay: In vivo co-immunoprecipitation of AKT-PKAc complex from striatum; design: ZaTa could disrupt the physical complex between AKT and PKAc in vivo; from tissue; host or cells: striatum of adult C57BL/6 mouse; species or system C57BL/6 mouse; settings: versus vehicle-treated hemisphere
Description: The phenotypic consequence of disrupting the AKT-PKAc complex was also determined. ZaTa peptide was injected into the striatum of one hemisphere of the brain and DMSO, as vehicle, was injected into the other brain hemisphere of an adult C57BL/6 mouse under anesthesia. The brain was removed and dissected. Equal protein amounts from each hemisphere were subjected to immunoprecipitation by an anti-AKT antibody. […] To compare PKAc protein levels in the ZaTa- and vehicle-treated brain hemisphere lysates, western blot analysis was conducted.

T1 sequence (P31750 whole entry, one chain of several): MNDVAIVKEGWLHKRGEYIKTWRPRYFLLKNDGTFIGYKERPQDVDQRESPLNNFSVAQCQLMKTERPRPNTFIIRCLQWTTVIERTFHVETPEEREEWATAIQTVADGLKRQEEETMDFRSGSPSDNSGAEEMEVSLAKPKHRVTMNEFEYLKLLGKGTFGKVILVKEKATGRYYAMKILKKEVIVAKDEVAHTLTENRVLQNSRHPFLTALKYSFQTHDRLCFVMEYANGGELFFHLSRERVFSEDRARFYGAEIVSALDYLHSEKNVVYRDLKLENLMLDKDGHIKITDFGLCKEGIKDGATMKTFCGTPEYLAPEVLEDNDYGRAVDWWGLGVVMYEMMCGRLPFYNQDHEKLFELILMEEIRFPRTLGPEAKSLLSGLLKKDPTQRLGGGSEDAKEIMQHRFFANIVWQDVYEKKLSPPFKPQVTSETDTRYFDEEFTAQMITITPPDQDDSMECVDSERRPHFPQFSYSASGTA
T2 sequence (P31749 whole entry, the tested form may be a part): as the sequence (P31750 whole entry, one chain of several) above, with N2S, S50A, A100T, R112K, T117E, T389K, N410G, D415H counted along it

AKRVKGRTWTLCGTPEY [ZaTa]
amount of PKAc in physical contact with AKT, N2a cells [1]: reduced the amount of PKAc in physical contact with AKT | AKT catalytic activity, phosphorylation level of Ser-9 GSK-3 GST substrate [2]: significantly reduced | amount of PKAc in physical contact with AKT, in vivo [3]: dramatically reduced
